Laboratory results published in patent US20230146239A1 (THE SCRIPPS RESEARCH INSTITUTE, priority 2020, published 2023).
≈ marks a conversion by molar mass, not a printed value. Read-outs that look alike come from different tables or passages of the source.

Key:
[1] = tested on: VanA E. faecium (TX2465); experiment: In vitro antimicrobial microdilution assay (MIC); format: cell-based, Enterococcus faecium
[2] = tested on: VanA E. faecium (ATCC BAA-2317); experiment: In vitro antimicrobial microdilution assay (MIC); format: cell-based, Enterococcus faecium
[3] = tested on: VanA E. faecalis (ATCC BAA-2573); experiment: In vitro antimicrobial microdilution assay (MIC); format: cell-based, Enterococcus faecalis
[4] = tested on: VanA E. faecalis (BM 4166); experiment: In vitro antimicrobial microdilution assay (MIC); format: cell-based, Enterococcus faecalis
[5] = tested on: VanA VRE E. faecalis BM 4166 and E. faecium ATCC BAA-2317; format: cell-based, Enterococcus faecalis, Enterococcus faecium; details: 10 μM added at 5 minutes
Experimental: The above bacterial solution was subjected to a subculture to obtain fresh mid-log phase bacterial cells (incubation time=6 hours). The bacterial suspension was diluted to a total volume of 7 mL with OD600=0.6.
After the cultured bacteria were harvested (3000 rpm, 4° C., 20 minutes), the white bacterial precipitate was washed and resuspended in 5 mM glucose and 5 mM HEPES buffer (1:1, 5.00 mL, pH=7.2).

[6] = tested on: VanA VRE E. faecalis (BM 4166); experiment: Impact of added LTA, phosphate, POPE on antimicrobial activity (MIC); format: cell-based, Enterococcus faecalis
Experimental: When NaH2PO4 or POPE was used instead of LTA, 10% brain-heart infusion broth containing 0.002% Tween®-80 with 100 μg/mL NaH2PO4 or 100 μg/mL POPE was used as the culture medium used for serial dilution. When additional G3 (H2N^+(CH2)3NHC(NH2)═NH2^+.2TFA) or Mg^2+ was used, 10% brain-heart infusion broth containing 0.002% Tween®-80 with 100 μg/mL G3 or 100 μg/mL MgCl2 and 100 μg/mL lipoteichoic acid was used as the culture medium for serial dilution of study group, 10% brain-heart infusion broth containing 0.002% Tween®-80 with 100 μg/mL G3 was used as the culture medium for serial dilution of control group.

[7] = tested on: two VanA VRE strains (E. faecalis BM4166, E. faecium ATCC BAA-2317); experiment: Resistance development assay, durability (serial passaging at 0.5×MIC); format: cell-based, Enterococcus faecalis, Enterococcus faecium; details: 50 passages
Experimental: The lowest concentration of antibiotic (in μg/mL) capable of eliminating cell growth in the wells is the reported MIC value.
A new MIC assay was performed with the same protocol above. This process was repeated for 50 passages, and the fold increase in MIC was determined after each passage.

CN[C@H](CC(C)C)C(=O)N[C@H]1C(=O)N[C@@H](CC(N)=O)C(=O)N[C@H]2C(=O)NC3C(=O)N[C@H](C(=O)N[C@H](C(=O)NC(CNC(=N)N)CNC(=N)N)c4cc(O)cc(O)c4-c4cc3ccc4O)[C@H](O)c3ccc(c(Cl)c3)Oc3cc2cc(c3OC2OC(CO)C(O)[C@H](O)[C@@H]2O[C@H]2CC(C)(N)[C@H](O)[C@H](C)O2)Oc2ccc(cc2Cl)[C@H]1O (stereo partly drawn) [Compound 14, DiG-vancomycin]
MIC, VanA E. faecium TX2465 [1]: 4 µg/mL (≈ 2.49 µM) | MIC, VanA E. faecium ATCC BAA-2317 [2]: 1 µg/mL (≈ 0.623 µM) | MIC, VanA E. faecalis ATCC BAA-2573 [3]: 2 µg/mL (≈ 1.25 µM) | MIC, VanA E. faecalis BM 4166 [4]: 8 µg/mL (≈ 4.99 µM)

CN[C@H](CC(C)C)C(=O)N[C@H]1C(=O)N[C@@H](CC(N)=O)C(=O)N[C@H]2C(=O)N[C@H]3C(=O)N[C@H](C(=O)N[C@H](C(=O)N[C@@H](CCCNC(=N)N)C(=O)O)c4cc(O)cc(O)c4-c4cc3ccc4O)[C@H](O)c3ccc(c(Cl)c3)Oc3cc2cc(c3OC2OC(CO)C(O)[C@H](O)C2O[C@H]2CC(C)(NCc3ccc(-c4ccc(Cl)cc4)cc3)[C@H](O)[C@H](C)O2)Oc2ccc(cc2Cl)[C@H]1O (stereo partly drawn) [Compound 21, Arg-CBP-vancomycin]
bacterial cell membrane permeabilization [5]: reduced bacteria cell permeabilization

CN[C@H](CC(C)C)C(=O)N[C@H]1C(=O)N[C@@H](CC(N)=O)C(=O)N[C@H]2C(=O)N[C@H]3C(=O)N[C@H](C(=O)N[C@H](C(=O)N[C@@H](CCCNC(N)=O)C(=O)OC)c4cc(O)cc(O)c4-c4cc3ccc4O)[C@H](O)c3ccc(c(Cl)c3)Oc3cc2cc(c3OC2OC(CO)C(O)[C@H](O)C2O[C@H]2CC(C)(NCc3ccc(-c4ccc(Cl)cc4)cc3)[C@H](O)[C@H](C)O2)Oc2ccc(cc2Cl)[C@H]1O (stereo partly drawn) [Compound 23, Cit(OMe)-CBP-vancomycin]
bacterial cell membrane permeabilization [5]: reduced bacteria cell permeabilization

CN[C@H](CC(C)C)C(=O)N[C@H]1C(=O)N[C@@H](CC(N)=O)C(=O)N[C@H]2C(=O)N[C@H]3C(=O)N[C@H](C(=O)N[C@H](C(=O)N[C@@H](CCCNC(=N)N)C(=O)OC)c4cc(O)c(CN[C@@H](CCCNC(=N)N)C(=O)OC)c(O)c4-c4cc3ccc4O)[C@H](O)c3ccc(c(Cl)c3)Oc3cc2cc(c3OC2OC(CO)C(O)[C@H](O)C2O[C@H]2CC(C)(N)[C@H](O)[C@H](C)O2)Oc2ccc(cc2Cl)[C@H]1O (stereo partly drawn) [Compound 28, Arg(OMe)-Arg(OMe)^Ar-vancomycin]
MIC ([1]; Enterococcus faecium, read-out: MIC, VanA E. faecium TX2465): 8 µg/mL (≈ 4.4 µM) | MIC ([2]; Enterococcus faecium, ATCCBAA2317, read-out: MIC, VanA E. faecium ATCC BAA-2317): 2 µg/mL (≈ 1.1 µM) | MIC ([3]; Enterococcus faecalis, ATCCBAA2573, read-out: MIC, VanA E. faecalis ATCC BAA-2573): 1 µg/mL (≈ 0.55 µM) | MIC ([4]; Enterococcus faecalis, read-out: MIC, VanA E. faecalis BM 4166): 8 µg/mL (≈ 4.4 µM)

N=C(N)NCCCN [G3^+, H2N(CH2)3NHC(═NH2)NH2^+]
MIC ([6]; E. faecalis BM 4166, POPE 100 μg/mL, read-out: MIC, +POPE): > 800 µg/mL | MIC ([6]; E. faecalis BM 4166, read-out: MIC, −POPE): > 800 µg/mL

CCCCCCCCCC(=O)N[C@@H](Cc1c[nH]c2ccccc12)C(=O)N[C@H](CC(N)=O)C(=O)N[C@@H](CC(=O)O)C(=O)N[C@@H]1C(=O)NCC(=O)N[C@@H](CCCN)C(=O)N[C@@H](CC(=O)O)C(=O)N[C@H](C)C(=O)N[C@@H](CC(=O)O)C(=O)NCC(=O)N[C@H](CO)C(=O)N[C@@H]([C@H](C)CC(=O)O)C(=O)N[C@@H](CC(=O)c2ccccc2N)C(=O)O[C@@H]1C [daptomycin]
resistance acquisition on serial passaging [7]: raise resistance more rapidly and in a more pronounced manner

CC(=O)NC[C@H]1CN(c2ccc(N3CCOCC3)c(F)c2)C(=O)O1 [linezolid]
resistance acquisition on serial passaging [7]: raise resistance more rapidly and in a more pronounced manner

CN(C)c1cc(NC(=O)CNC(C)(C)C)c(O)c2c1C[C@H]1C[C@H]3[C@H](N(C)C)C(O)=C(C(N)=O)C(=O)[C@@]3(O)C(O)=C1C2=O [tigecycline]
resistance acquisition on serial passaging [7]: raise resistance more rapidly and in a more pronounced manner
